Compound	melting point [°C]
O=C1CCC(CN2C(=O)C3(COc4cc5c(cc43)CCO5)c3ccccc32)N1 (configuration not stated)	133 to 136
CC(C)C[C@H](NC(=O)c1ccc2c(c1)Nc1ccccc1S2)C(=O)N1CCC2(C1)OCCO2	75 to 77
CN1CCN(c2ccc3c(c2)NC(=O)C(C)(c2ccc([N+](=O)[O-])cc2)C3=O)CC1 (configuration not stated)	150 to 151
CC(C)N(CC(O)(Cn1cncn1)c1ccc(Cl)cc1Cl)S(C)(=O)=O (configuration not stated)	132 to 133
COc1cc(C=CC(=O)N2CCN(c3nc(N)c4cc(OC)c(OC)cc4n3)CC2)cc(OC)c1	132 to 135
CN1CCN(C)C1=Nc1ccccc1CN1CCOCC1	56 to 58
CS(=O)(=O)NC(=O)N1CC1C#N (configuration not stated)	110 to 112
CCCCOc1ccc(C=C(C#N)S(C)(=O)=O)cc1	96.5 to 97
CC(=O)SCC1(CSC(C)=O)C(=O)N2CCCC(C(=O)OC(C)(C)C)N2C1=O (configuration not stated)	85 to 86
N#CC(=CNc1ccccc1)Cc1cnc2ccccc2c1	202 to 203
COC(CCCNC(=O)CCCCCCCCC(=O)NCCCC(OC)OC)OC	83.5 to 85.5
N#CCc1c[nH]c2ccc(CS(=O)(=O)Oc3ccccc3)cc12	134 to 135
OC1CSC(Oc2ccc(-c3ccncc3)nc2)C(O)C1O (configuration not stated)	248
CCOC(=O)Nc1ccc(C(=O)OCC)nc1	177 to 178
Nc1nc2c(s1)CC(CCN1CC=C(c3ccccc3)CC1)CC2 (configuration not stated)	177 to 182
N[C@@H](Cc1c[nH]c2ccccc12)C(=O)N(N)C(=O)[C@H](Cc1c[nH]cn1)NC(=O)[C@@H]1CCC(=O)N1	165 to 169
CCC1N=C(c2ccccc2Cl)c2cc(CCC(=O)OC)sc2NC1=S (configuration not stated)	173 to 176
CC1CC2=CC(=O)CCC2C2C(F)CC3(C)C(OCc4ccc(S(N)(=O)=O)cc4)CCC3C12 (configuration not stated)	232
Cc1cccc2c1C1=C(CC2)NC(=O)CC1	168 to 169
CC(C)NC(=O)c1ccccc1	101 to 103
CCCCN(c1nc(NCCCCCCN)nc(N(CCCC)C2CC(C)(C)N(C)C(C)(C)C2)n1)C1CC(C)(C)N(C)C(C)(C)C1	125

Compound	melting point [°C]
C[C@@H]1N[C@@H](c2ccc(C#N)cc2)[C@H]2C(=O)N(Cc3ccccc3)C(=O)[C@H]21 (racemic)	169 to 170
CN1CCOc2cccc3nc4c(c1c23)CCCC4	97 to 98
CC(C)(CO)c1cn2nc(NCCCN3CCC(OC(c4ccccc4)c4ccccc4)CC3)ccc2n1	105 to 108
N#Cc1c(Br)c(Br)n(O)c1-c1ccc(Cl)cc1	208 to 209
CC(C)(C)OC(=O)CN1CC(c2ccccc2)CCC(N=[N+]=[N-])C1=O (configuration not stated)	119 to 121
CC#CC(C)(C)NC(=O)C(CC)Oc1cncc(Cl)c1 (configuration not stated)	87 to 89
COc1ccc(N2C(=O)[C@@H](CCCc3ccccc3)[C@@H]2c2ccc(N3CCN(Cc4ccccc4)CC3)cc2)cc1 (relative stereo)	139 to 140
CCOC(=O)/C(=C/c1ccc(OC)c(OC2CCCC2)c1)c1ccncc1	109 to 110
C=CC(C)(C)C(O)(COc1ccc(-c2ccccc2)cc1)Cn1cncn1 (configuration not stated)	85 to 87
Nc1nc(-c2ccncc2)nc2c1c(Cl)nn2C1CCCC1	132 to 134
CCCN(CCC)CC1CCCCN1CCNC(=O)N1c2ccccc2NC(=O)c2c1ccn2C (configuration not stated)	153 to 155
Cc1ccc(S(=O)(=O)OC[C@H](O)CO)cc1	54 to 59
N#Cc1cn(C2CCc3ccccc3NC2=O)nn1 (configuration not stated)	214 to 216
N#CN=C(Oc1ccccc1)N1CCCCC1	85.7
CC(=O)NCc1ccc2c(c1)N(C1CCNCC1)CC2	165 to 167
CCC1CCC(C2CCC(CC)CC2)CC1 (configuration not stated)	-6
O=C(Cl)c1ccc(NC(=O)c2ccccc2-c2ccccc2)cc1	118 to 120
O=C1CNc2ccccc2N1c1ccc(Cl)cc1	196 to 199
CC(C(=O)O)c1ccc(C(=O)c2ccco2)cc1 (configuration not stated)	86 to 88
CSc1ccccc1C(=O)CBr	81 to 82

Other lines, results leading:

melting point [°C]	Compound
195 to 197	Cc1cc(C)n(C)c1C(=O)c1cccnc1
55 to 57	Oc1ccc(F)cc1C=C(Cl)Cl
122 to 124	O=C(O)CCCCc1nc2c(F)c(F)cc(F)c2s1
102 to 103	CN(C)CCNC(=O)c1cccc(-c2cccc3cn(Cc4cccc(C(F)(F)F)c4)nc23)c1
250 to 252	CCOc1ccc(Nc2ncc(C(=O)O)c(=O)[nH]2)cc1
183 to 185	O=S1(=O)c2sccc2C(O)CN1Cc1ccncc1 (configuration not stated)
118 to 123	CCCCCCn1nc(-c2ccc(C(F)(F)F)cc2)cc1CCC(=O)c1ccc(OCC(=O)O)c(C)c1
254 to 255	Cn1nc2c(N)nc3ccccc3c2c1CC(C)(C)C
166 to 168	Cc1cc(CNC(=O)CCl)c(O)c2c1CCC2=O
83 to 84	C#CCOc1cnc(C2=NC(C)(C(C)C)C(=O)N2)c(C(=O)OC)c1 (configuration not stated)
126 to 127	CCOC(=O)c1cc2c3ccccc3n(Cc3ccccc3)c2cn1
217 to 218	Cn1c(C(=O)OCc2ccccc2)c(-c2ccc(F)cc2)c2cccnc2c1=O
210 to 212	COC(=O)c1cccc2nc(OCC(F)(F)F)n(Cc3ccc(-c4ccccc4-c4nnn[nH]4)cc3)c12
107 to 108	N#Cc1ccc(OCCCN2CCC(C(O)(c3ccc(F)cc3)c3ccc(F)cc3)CC2)cc1
153 to 155	CSc1sc(-c2ccccn2)c2c1-c1oncc1C(C)(C)C2
154 to 155	C=CCOC(=O)Nc1c(C#N)cnn1-c1ccc(Cl)c(Cl)c1Cl
270 to 280	O=C(CNc1c(C(=O)O)[nH]c2cc(Cl)cc(Cl)c12)c1cccc(F)c1
172 to 174	CCCCOc1cc(/C=C/C(=O)O)n(Cc2ccc(C(F)(F)F)cc2Cl)n1
76 to 77	CC(=O)N1CCOc2c(C(=O)O)cc(Cl)cc21
208 to 209	COc1c(OCCCCCC(=O)N(CCO)C2CCCCC2)ccc2c1CN1CC(=O)NC1=N2
143 to 145	Cc1ccc2c(n1)Oc1ccc(C(C)C(=O)OCCC(N)=O)cc1C2 (configuration not stated)

melting point [°C]	Compound
115 to 117	CCOc1ccn2nc(SCc3ccccc3)nc2n1
197 to 198	CC(=O)N1[C@@H](c2ccc(Cl)cc2)SC(C)(C)[C@@H]1C(=O)O
197 to 198	CC(C)(C)OC(=O)Nc1ccc(C(=O)O)cc1C(F)(F)F
94 to 96	COc1c(F)ccc2c(C3CCN(C(=O)OC(C)(C)C)CC3)noc12
170 to 172	CC(=O)c1cc(C)c2c(n1)-c1ccccc1C2=O
199 to 201	CCN1c2ncc(C=O)cc2C(=O)N(C)c2ccc(Cl)nc21
210	CCOC(=O)C1=C(C)Nc2nc(N(C)C)nc(N)c2C1c1ccccc1C(F)(F)F (configuration not stated)
191 to 193	COc1cncnc1N1CCN(CCCc2c[nH]c3ccc(Nc4cc(=O)c4=O)cc23)CC1C (configuration not stated)
220 to 222	CON=C1CN(c2c(F)c(N)c3c(=O)c(C(=O)O)cn(C4CC4)c3c2F)CC12CN(C)C2
204 to 205	Cc1ccc(N)cc1S(=O)(=O)Nc1onc(C)c1C
143 to 144	COC(=O)CC1SC2=Nc3ccccc3CN2C1=O (configuration not stated)
113 to 116	CSc1nn2c(Cl)cc(CN3CCN(C)CC3)nc2c1S(=O)(=O)c1ccccc1
119 to 124	N#CCc1cc(Br)cc(Cc2nc3c(F)c(F)cc(F)c3s2)c1
113 to 114	CCCCCC(CC(=O)Nc1cc(CCC(N)=O)ccc1C(C)(C)C)c1ccc(OC)cc1OC (configuration not stated)
125	CC1SC(=O)NN=C1c1ccc2c(c1)C(C)(C)C(=O)N2C (configuration not stated)
106 to 108	C#CCCCCCCCCCCOc1cccc(C(N)=O)c1
172 to 173	O=C(Nc1cc(Cl)ccc1O)Nc1cc(C(F)(F)F)ccc1Cl
189 to 190	CCCCc1nc2c(N)nc3ccccc3c2n1CCCNC(=O)c1ccccc1
153 to 155	Nc1n[nH]cc1C(=O)c1ccco1
199 to 200	CC(=O)NC[C@H]1CN(c2ccc(N3CCC(Cc4nnc(-c5ccccc5)o4)CC3)c(F)c2)C(=O)O1
154 to 155	CCOC(=O)c1[nH]c(CC)nc1C1CC1

melting point [°C]	Compound
223 to 224	COc1ccc(Cl)nc1C(N)=O
131 to 134	O=P(O)(O)c1cccc(OCc2ccc3ccccc3c2)c1
130 to 131	CC(=O)Oc1cc2cc[nH]c2cc1OC(C)=O
163 to 164	O=C(Nc1ccc(F)cc1)[C@H]1CCCN(C(=O)c2ccc(F)cc2)C1
139 to 140	COc1ccc2c(n1)c(CCNC(=O)c1ccco1)c1n2CCCO1
79 to 82	N#Cc1ccc(-c2ccc(OCCCCCCC(=O)NO)cc2)cc1
158 to 161	CCn1nc(OCC(=O)C(C)(C)C)c(-c2ccccc2)c1-c1ccc(S(C)(=O)=O)cc1
232 to 233	CCN(CC)c1ccc(-c2nnc(Nc3ccc(Br)c(Cl)c3)s2)cc1
181	O=C(c1cc([N+](=O)[O-])cc(C(F)(F)F)c1)c1cc([N+](=O)[O-])cc(C(F)(F)F)c1
105 to 107	CCc1nn(CCN)c(CO)c1Oc1cc(Cl)cc(Cl)c1
266 to 271	Cn1c(Cc2ccc(Cl)cc2Cl)nc2cc(C(=O)O)ccc2c1=O
194	CN1C(=O)CC(c2ccccc2)C1C(O)c1ccc(-c2ccc(F)c(Cl)c2)s1 (configuration not stated)
105 to 106	CCOC(=O)c1cn(CCC(C)C)c2nn(C)cc2c1=O
161	O=C(NCCO)c1ccc(OCC2(O)CCN(Cc3ccccc3)CC2)cc1
116 to 120	Cc1nc2cc(NCC(=O)C3(C)CC3)ccc2s1
133	CCc1nc2c(C)c(C#N)c(C)nc2n1-c1ccc(CCNC(=O)NS(=O)(=O)c2ccc(C)cc2)cc1
72 to 75	O=C(OCCN1CCCCCC1)c1ccccc1Nc1ccnc2cc(C(F)(F)F)ccc12
109 to 110	Cn1nc(C(F)(F)F)cc1Oc1cccc(-c2nc(C(F)(F)C(F)(F)F)no2)n1
206 to 208	CN1CC[C@@H](c2c(O)cc(O)c3c(=O)cc(-c4ccccc4F)oc23)[C@@H]1CO

Source: a melting point compilation (Tetko et al.; mined from patent text by program, amines drawn as free bases though some values may be those of a salt)
